Source: patent US20230183292A1, “IMMUNOMODULATORS” (priority 2020, published 2023)
Where two headings read alike, the source gives them in different places. Positions of bridges follow the written chain, without caps; N, C: chain ends. Non-standard residues stand in square brackets, D forms with d. Residues, ends and D or L forms follow the SMILES beside them. *: point of attachment. X21 = CC[C@H]1[C@@H](O)[C@@H]2[C@H](CC[C@]3(C)[C@@H]([C@H](C)CCC(=O)*)CC[C@@H]23)[C@@]2(C)CC[C@@H](O)C[C@@H]12; Cholesteryloxycarbonyl = CC(C)CCC[C@@H](C)[C@H]1CC[C@H]2[C@@H]3CC=C4C[C@@H](OC(=O)*)CC[C@]4(C)[C@H]3CC[C@]12C; Chenodeoxycholyl = C[C@H](CCC(=O)*)[C@H]1CC[C@H]2[C@@H]3[C@H](O)C[C@@H]4C[C@H](O)CC[C@]4(C)[C@H]3CC[C@]12C; Cholyl = C[C@H](CCC(=O)*)[C@H]1CC[C@H]2[C@@H]3[C@H](O)C[C@@H]4C[C@H](O)CC[C@]4(C)[C@H]3C[C@H](O)[C@]12C; Trp(1-CH2CO2Me) = COC(=O)Cn1cc(C[C@H](N)C(=O)O)c2ccccc21; Trp(1-CH2COOH) = N[C@@H](Cc1cn(CC(=O)O)c2ccccc12)C(=O)O; Hyp = O=C(O)[C@@H]1C[C@@H](O)CN1; NMeNle = CCCC[C@H](NC)C(=O)O; NMeA = CN[C@@H](C)C(=O)O; Dab = NCC[C@H](N)C(=O)O; Dap = NC[C@H](N)C(=O)O

Biological target: T1, PD-1/PD-L1 (Homo sapiens, UniProt Q9NZQ7)
T1 construct: TVMV protease site (C); made in house; host or cells: HEK293T cells
T1 sequence (Q9NZQ7 18-239): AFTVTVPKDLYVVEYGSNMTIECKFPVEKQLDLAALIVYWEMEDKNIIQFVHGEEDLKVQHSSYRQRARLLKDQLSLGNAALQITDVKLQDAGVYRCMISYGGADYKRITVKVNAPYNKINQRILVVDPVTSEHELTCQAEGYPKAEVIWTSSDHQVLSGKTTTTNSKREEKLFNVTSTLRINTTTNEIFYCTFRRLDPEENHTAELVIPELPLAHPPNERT
Experiment: PD-1/PD-L1 Homogenous Time-Resolved Fluorescence (HTRF) binding assay
Details: PD-1-Ig 20 nM
Description: The ability of the compounds of formula (I) to bind to PD-L1 was investigated using a PD-1/PD-L1 Homogenous Time-Resolved Fluorescence (HTRF) binding assay.
The interaction of PD-1 and PD-L1 can be assessed using soluble, purified preparations of the extracellular domains of the two proteins. The PD-1 and PD-L1 protein extracellular domains were expressed as fusion proteins with detection tags, for PD-1, the tag was the Fc portion of Immunoglobulin (PD-1-Ig) and for PD-L1 it was the 6 histidine motif (PD-L1-His). All binding studies were performed in an HTRF assay buffer consisting of dPBS supplemented with 0.1% […] bovine serum albumin and 0.05% (v/v) Tween-20. For the h/PD-L1-His binding assay, inhibitors were pre-incubated with PD-L1-His (10 nM final) for 15 m in 4 μl of assay buffer, followed by addition of PD-1-Ig (20 nM final) in 1 μl of assay buffer and further incubation for 15 m. HTRF detection was achieved using europium crypate-labeled anti-Ig (1 nM final) and allophycocyanin (APC) labeled anti-His (20 nM final). Antibodies were diluted in HTRF detection buffer and 5 μl was dispensed on top of the binding reaction. The reaction mixture was allowed to equilibrate for 30 minutes and the resulting signal (665 nm/620 nm ratio) was obtained using an EnVision fluorometer. Additional binding assays were established between the human proteins PD-1-Ig/PD-L2-His (20 & 5 nM, respectively) and CD80-His/PD-L1-Ig (100 & 10 nM, respectively).
Recombinant Proteins: Human PD-1 (25-167) with a C-terminal human Fc domain of immunoglobulin G (Ig) epitope tag [hPD-1 (25-167)-3S-IG] and human PD-L1 (18-239) with a C-terminal His epitope tag [hPD-L1(18-239)-TVMV-His] were expressed in HEK293T cells and purified sequentially by ProteinA affinity chromatography and size exclusion chromatography. Human PD-L2-His and CD80-His was obtained through commercial sources.
Table 1 lists the IC50 values for representative examples of this disclosure measured in the PD-1/PD-L1 Homogenous Time-Resolved Fluorescence (HTRF) binding assay.

[1] = PD-L1-His 10 nM, read-out: HTRF IC50

| Compound | IC50 [1] | IC50 (HTRF IC50, PD-L1-His 10 nM) |
| --- | --- | --- |
| CCCC[C@H]1C(=O)N(C)[C@@H](CCCC)C(=O)N[C@@H](CC(C)C)C(=O)N[C@H](C(=O)NCC(N)=O)CSCC(=O)N[C@@H](Cc2ccc(O)cc2)C(=O)N(C)[C@@H](C)C(=O)N[C@@H](CC(N)=O)C(=O)N2CCC[C@H]2C(=O)N[C@@H](CNC(=O)CC[C@@H](C)[C@H]2CC[C@H]3[C@@H]4[C@H](O)C[C@@H]5C[C@H](O)CC[C@]5(C)[C@H]4C[C@H](O)[C@]23C)C(=O)N[C@@H](CC(C)C)C(=O)N2C[C@H](O)C[C@H]2C(=O)N[C@@H](Cc2c[nH]c3ccccc23)C(=O)N[C@@H](CCN)C(=O)N[C@@H](Cc2cn(CC(=O)OC)c3ccccc23)C(=O)N1C [Example 1011] ({CH2CO}-Y[NMeA]NP[Dap](Cholyl)L[Hyp]W[Dab][Trp(1-CH2CO2Me)][NMeNle][NMeNle]LCG-NH2; thioether N-14) | 0.0063 µM |  |
| CCCC[C@H]1C(=O)N(C)[C@@H](CCCC)C(=O)N[C@@H](CC(C)C)C(=O)N[C@H](C(=O)NCC(N)=O)CSCC(=O)N[C@@H](Cc2ccc(O)cc2)C(=O)N(C)[C@@H](C)C(=O)N[C@@H](CC(N)=O)C(=O)N2CCC[C@H]2C(=O)N[C@@H](CNC(=O)O[C@H]2CC[C@@]3(C)C(=CC[C@H]4[C@@H]5CC[C@H]([C@H](C)CCCC(C)C)[C@@]5(C)CC[C@@H]43)C2)C(=O)N[C@@H](CC(C)C)C(=O)N2C[C@H](O)C[C@H]2C(=O)N[C@@H](Cc2c[nH]c3ccccc23)C(=O)N[C@@H](CCN)C(=O)N[C@@H](Cc2cn(CC(=O)O)c3ccccc23)C(=O)N1C [Example 1012] ({CH2CO}-Y[NMeA]NP[Dap](Cholesteryloxycarbonyl)L[Hyp]W[Dab][Trp(1-CH2COOH)][NMeNle][NMeNle]LCG-NH2; thioether N-14) |  | 0.13 µM |
| CCCC[C@H]1C(=O)N(C)[C@@H](CCCC)C(=O)N[C@@H](CC(C)C)C(=O)N[C@H](C(=O)NCC(N)=O)CSCC(=O)N[C@@H](Cc2ccc(O)cc2)C(=O)N(C)[C@@H](C)C(=O)N[C@@H](CC(N)=O)C(=O)N2CCC[C@H]2C(=O)N[C@@H](CNC(=O)CC[C@@H](C)[C@H]2CC[C@H]3[C@@H]4[C@H](O)C[C@@H]5C[C@H](O)CC[C@]5(C)[C@H]4CC[C@]23C)C(=O)N[C@@H](CC(C)C)C(=O)N2C[C@H](O)C[C@H]2C(=O)N[C@@H](Cc2c[nH]c3ccccc23)C(=O)N[C@@H](CCNC(=O)CC[C@@H](C)[C@H]2CC[C@H]3[C@@H]4[C@H](O)C[C@@H]5C[C@H](O)CC[C@]5(C)[C@H]4CC[C@]23C)C(=O)N[C@@H](Cc2cn(CC(=O)O)c3ccccc23)C(=O)N1C [Example 1013] ({CH2CO}-Y[NMeA]NP[Dap](Chenodeoxycholyl)L[Hyp]W[Dab](Chenodeoxycholyl)[Trp(1-CH2COOH)][NMeNle][NMeNle]LCG-NH2; thioether N-14) | 0.46 µM |  |
| CCCC[C@H]1C(=O)N(C)[C@@H](CCCC)C(=O)N[C@@H](CC(C)C)C(=O)N[C@H](C(=O)NCC(N)=O)CSCC(=O)N[C@@H](Cc2ccc(O)cc2)C(=O)N(C)[C@@H](C)C(=O)N[C@@H](CC(N)=O)C(=O)N2CCC[C@H]2C(=O)N[C@@H](CNC(=O)CC[C@@H](C)[C@H]2CC[C@H]3[C@@H]4[C@H](O)[C@H](CC)[C@@H]5C[C@H](O)CC[C@]5(C)[C@H]4CC[C@]23C)C(=O)N[C@@H](CC(C)C)C(=O)N2C[C@H](O)C[C@H]2C(=O)N[C@@H](Cc2c[nH]c3ccccc23)C(=O)N[C@@H](CCNC(=O)CC[C@@H](C)[C@H]2CC[C@H]3[C@@H]4[C@H](O)[C@H](CC)[C@@H]5C[C@H](O)CC[C@]5(C)[C@H]4CC[C@]23C)C(=O)N[C@@H](Cc2cn(CC(=O)O)c3ccccc23)C(=O)N1C [Example 1014] ({CH2CO}-Y[NMeA]NP[Dap](X21)L[Hyp]W[Dab](X21)[Trp(1-CH2COOH)][NMeNle][NMeNle]LCG-NH2; thioether N-14) | 0.34 µM |  |
